This note sets out measurements from patent publication US7432045B2 (priority 2003, dated 2008).

Read-outs that look alike come from different tables or passages of the source. Peptide text beside a SMILES is read from it.

As a reminder, the IC50 is the concentration at which inhibition is half-maximal. What is called EC50 is the concentration giving half of the maximal effect.

The test system of data set [1] is hrR3. Kind of data set: Virucidal assay. The data set is classed as cell-based, HSV-1. The protocol:
[…] The treated virus was diluted 200-fold with serum-supplemented DMEM and assayed for infectivity approximately 1 hour later in microtiter wells seeded with Vero cells (3.5×10^4 cells/well) 1 d earlier. Forty or 100 microliter volumes of diluted virus were adsorbed for 1 or 2 h at 37° C. and lacZ^+ cells were scored 8 hours later. In some experiments, aliquots of diluted virus were first dialyzed (Spectra/Por; MWCO 12-14,000) overnight at 4° C. against a 60-fold excess volume of Hepes-buffered serum-supplemented DMEM or forced by syringe through 0.22 μm membranes (Millex-GV; Millipore) before the remaining infectious virus was assayed.

A further data set concerns HSV-1 KOS virions. In words: Electron microscopy of peptide-treated virus (aggregation). The method, then: Electron microscopy: Purified HSV-1 KOS virions (2.5×10^7 pfu/mL) according to Visalli et al., Virus Res. 29:167 (1993) were treated with 25 μM antiviral peptide SEQ ID NO:1 or the control peptide EBX (SEQ ID NO:17) in 40 μL serum-free DMEM buffered with 25 mM Hepes (pH 7.4) for 5 to 60 min at 4 or 23° C. Aliquots (10 μL) were adsorbed to pioloform poly-L-lysine-coated grids for 5 min at 23° C. Grids were rinsed with PBS, stained with 2% phosphotungstic acid (PTA) in water adjusted to pH ˜6, and air dried. Alternatively, virus was pre-adsorbed to grids and treated with peptides thereafter. A total of 4×10^9 pfu/mL of purified HSV-1 KOS in 5 μL PBS was applied to the coated grids for 5 min at 23° C., and the grids were rinsed once with serum-free DMEM buffered with 25 mM Hepes (pH 7.4) and treated with 15 μL of 5 mM EB or EBX in the same medium for 30 min at 37° C. The pH of highly concentrated solutions of antiviral peptide SEQ ID NO:1 and EBX was re-adjusted to 7.4 with NaOH prior to use. To prevent evaporation of the peptide-containing solutions, each grid was held in a Hiraoka flexible staining plate and covered with a miniature bell jar made from an 0.5 mL polypropylene micro-centrifuge tubes, small enough for the 15 μL to fill half of the bell jar facing the coated surface of the grid. The entire assembly was then incubated in a moist chamber for 30 min at 37° C. […]

For a further data set, the system named is HSV-1 KOS. The conditions noted are these: depending on concentration.
Data set [2] relates to HSV-1 KOS mutant hrR3. The following applies: 25 μM peptide.
Another data set has as its system H5 Avian Influenza virus. The conditions noted are these: dog.
In data set [3] the test system is hrR3.
The subject of data set [4] is hrR3. The following applies: read-out: IC50, infection in presence of peptide with peptide treated virions.
The nature of another data set: in vitro. The conditions noted are these: African green monkey.
Another data set can be described thus: MTS assay. The following applies: human, CEMx174 cells (T-B hybridoma). (Tetrazolium assays rely on reduction of a dye to a coloured formazan, in cell work by metabolically active cells.)
Data set [5] is described as follows: MTS assay, eight cell lines. The following applies: Vero, HeLa, CV-1PD, TM-1, DP-9, NIKS and W12E cells.
Data set [6] concerns Vero, HeLa, CV-1PD, TM-1, DP-9, CEMx174, NIKS, W12E cells. Kind of data set: MTS assay, eight cell lines. The following applies: for cytotoxicity to cells (MTS), overall: eight cell lines.
The test system of the next data set is hrR3 virions. In words: Inactivation of virions in solution. The conditions noted are these: 37° C. The data set is classed as cell-based, HSV-1. The protocol: Inactivation of virions: To assess the ability of peptides to inactivate virions, 3-4×10^6 pfu/mL of virus was mixed on ice with peptide in serum-free DMEM and incubated for 1 h at 4 or 37° C. Aliquots (10 μL) were diluted 1000-fold into peptide-free serum-supplemented DMEM at 23° C. and 50 μL aliquots were assayed in triplicate for infectivity in Vero cell cultures (dilution assay). Alternatively, 10 μL aliquots were diluted into 1 mL of ice-cold peptide-free serum-supplemented DMEM and the virus was pelleted as described above (centrifugation assay). Viral pellets were then resuspended in 250 μL serum-supplemented DMEM and 50 μL aliquots were assayed in triplicate for infectivity in Vero cell cultures.
Some of the virus diluted without the addition of NaCl was pelleted immediately (Control), while the rest of the diluted virus was stored at 4° C. and pelleted 19 h later. The virus was pelleted and assayed for infectivity as described in Example 1.

The subject of data set [7] is HSV-1 KOS mutant hrR3.

As for `CC(C)C[C@H](NC(=O)[C@H](C)NC(=O)[C@H](CC(C)C)NC(=O)[C@H](CC(C)C)NC(=O)[C@@H](NC(=O)[C@H](C)NC(=O)[C@@H]1CCCN1C(=O)[C@H](CC(C)C)NC(=O)[C@H](CC(C)C)NC(=O)[C@H](C)NC(=O)[C@@H](NC(=O)[C@H](C)NC(=O)[C@H](C)NC(=O)[C@H](CCCCN)NC(=O)[C@H](CCCCN)NC(=O)[C@H](CCCNC(=N)N)NC(=O)[C@@H](N)CCCNC(=N)N)C(C)C)C(C)C)C(=O)N[C@@H](CC(C)C)C(=O)N[C@@H](C)C(=O)N1CCC[C@H]1C(=O)O` [EB] (H-RRKKAAVALLPAVLLALLAP-OH), the “reversibility of virion inactivation by overnight dialysis” value in the data set on hrR3 [1] is “irreversibly inactivated”. The IC50 with hrR3 [1] (4° C., read-out: Virucidal Activity 4° C. IC50) is 89 µM; in the data set with hrR3 [1] (first experiment, FIG. 8A, read-out: inhibition of infectivity of virions IC50) it was 44 µM; in the data set with hrR3 [1] (second experiment, FIG. 8B, read-out: inhibition of infectivity of virions IC50) it was 69 µM; in the data set with H5 Avian Influenza virus, 0.5 µM; with hrR3 [3] (read-out: IC50 for rendering cells resistant to subsequent viral infection in the absence of peptide, cells exposed 1 h at 37° C., peptide rinsed off), 2.3 µM; in the data set with hrR3 [3] (read-out: IC50 of cellular resistance after 8.5 h in peptide-free medium, 8.5 h after first exposure) it was over 100 µM. For the same molecule, the IC50 in the data set with hrR3 [3] (read-out: IC50 of cellular resistance, first exposure, infected immediately after 1 h exposure) came to 4 µM; with hrR3 [3] (read-out: IC50 of cellular resistance, second exposure, second exposure 8.5 h after the first), 2.5 µM; in the data set with hrR3 [4] (cells pretreated with peptide) it was 0.9 µM; in the data set on hrR3 [4] (non-pretreated cells), 1.7 µM; in “in vitro”, 68 µM. Also, the “aggregation of virus particles” value with HSV-1 KOS virions (25 μM peptide) is “nearly all of the particles were seen in relatively few large aggregates”. In addition, the “time of aggregate formation” value in the data set on HSV-1 KOS virions (room temperature as well as 4° C.) is under 5 min. In the data set on HSV-1 KOS, the “reduction of virus yields” value is recorded as “up to eight orders of magnitude”. Moreover, the “concentration at which cytotoxic effects were seen first” value in the data set on Vero cells was 200 µM. Besides, in the data set with Vero cells, the “cytotoxic effects (trypan blue) in cellular resistance experiments” value is “No cytotoxic effects”. The “effect on development of lacZ+ cells when added immediately after citrate treatment” value in the data set with HSV-1 KOS mutant hrR3 [2] is recorded as “no longer had any effect”. Besides, the “cytotoxic effects (trypan blue staining)” value with MDCK cells is “No cytotoxic effects”. For the same molecule, the “time needed to induce cellular resistance” value in the data set with hrR3 [3] (30 μM peptide, 37° C.) is “almost instantaneously”. Moreover, in the data set with hrR3 [3] (induced at 4° C.), the “reversibility of resistance induced at 4° C. by rinsing with 0.5 M NaCl” value is on record as “only partially reversible”. Further, in the data set on hrR3 [3] (induced at 37° C.), the “reversibility of resistance induced at 37° C. by rinsing with 0.5 M NaCl” value was “completely irreversible”. Further, the results for the half-maximal effective concentration (EC50) (in the data set “MTS assay”; in [5]) were 50 µM and over 100 µM, respectively. Besides, in data set [6], the “cytotoxicity to cells (MTS), overall” value was “generally not cytotoxic”.
As to `N=C(N)NCCC[C@H](NC(=O)CN)C(=O)N[C@@H](CCCCN)C(=O)N[C@@H](CCCCN)C(=O)N[C@@H](CCCNC(=N)N)C(=O)N[C@@H](CCCNC(=N)N)C(=O)N[C@@H](CCC(N)=O)C(=O)N[C@@H](CCCNC(=N)N)C(=O)N[C@@H](CCCNC(=N)N)C(=O)N[C@@H](CCCNC(=N)N)C(=O)N[C@@H](CS)C(=O)O` [TAT-C, NH2-GRKKRRQRRRC-COOH], the IC50 with hrR3 virions (dilution or centrifugation, read-out: inactivation of virions IC50) is about 75 µM. In addition, in the data set with hrR3 virions (read-out: Inactivation of Virions 37° C. IC50), the IC50 stood at 100 µM. Also, in the data set with HSV-1 KOS mutant hrR3 [7] (10 or 100 μM peptide), the “inhibitory effect after 1 h at 32° C.” value is recorded as “about 90%”; the “virus internalized after cultures were rinsed and shifted to 37° C.” value was 25-33%. The “reversibility of the inhibitory effect after removal of peptide” value in the data set with HSV-1 KOS mutant hrR3 [7] (n50,51TAT-C 10 μM, TAT-C 10 or 100 μM) is “largely irreversible”. Besides, the “inhibition after rinsing with 0.5 M NaCl” value in the data set with hrR3 [3] (30 μM peptide 1 h at 4° C.) is “completely reversed”. The infection blocked in the data set on hrR3 [3] (30 μM peptide 1 h at 4° C., rinsed with culture medium alone) was found to be 50%. Besides, the “concentration at which not toxic (MTS)” value in data set [6] (all cell lines tested) was over 400 µM. For the same molecule, in [6], the “cytotoxicity to cells (MTS), overall” value is given as “generally not cytotoxic”.
